Results taken from PMC11820102, “Molecular Dynamics-Assisted Discovery of Novel Phosphodiesterase-5 Inhibitors Targeting a Unique Allosteric Pocket” (Molecules, 2025).

What was measured:
PDE5A1 [1] = target: T1, PDE5A1 (Homo sapiens, UniProt O76074); assay: radiometric 3H-cGMP hydrolysis assay, inhibition ratio at […]; assay type: biochemical; set-up: gene PDE5A; catalytic domain, amino acids 535–860
PDE5A1 [2] = target: T1, PDE5A1; set-up: gene PDE5A
PDE10A = PDE10A (Homo sapiens, UniProt Q9Y233); assay: radiometric 3H-cAMP/3H-cGMP hydrolysis assay, single concentration; assay type: biochemical
PDE11A = PDE11A (Homo sapiens, UniProt Q9HCR9); assay: as above; assay type: biochemical
PDE5A1 [3] = target: T1, PDE5A1; assay: radiometric 3H-cGMP hydrolysis assay, dose-response; assay type: biochemical; set-up: gene PDE5A; catalytic domain, amino acids 535–860

Chain of PDE11A (Q9HCR9 whole entry, the tested form may be a part): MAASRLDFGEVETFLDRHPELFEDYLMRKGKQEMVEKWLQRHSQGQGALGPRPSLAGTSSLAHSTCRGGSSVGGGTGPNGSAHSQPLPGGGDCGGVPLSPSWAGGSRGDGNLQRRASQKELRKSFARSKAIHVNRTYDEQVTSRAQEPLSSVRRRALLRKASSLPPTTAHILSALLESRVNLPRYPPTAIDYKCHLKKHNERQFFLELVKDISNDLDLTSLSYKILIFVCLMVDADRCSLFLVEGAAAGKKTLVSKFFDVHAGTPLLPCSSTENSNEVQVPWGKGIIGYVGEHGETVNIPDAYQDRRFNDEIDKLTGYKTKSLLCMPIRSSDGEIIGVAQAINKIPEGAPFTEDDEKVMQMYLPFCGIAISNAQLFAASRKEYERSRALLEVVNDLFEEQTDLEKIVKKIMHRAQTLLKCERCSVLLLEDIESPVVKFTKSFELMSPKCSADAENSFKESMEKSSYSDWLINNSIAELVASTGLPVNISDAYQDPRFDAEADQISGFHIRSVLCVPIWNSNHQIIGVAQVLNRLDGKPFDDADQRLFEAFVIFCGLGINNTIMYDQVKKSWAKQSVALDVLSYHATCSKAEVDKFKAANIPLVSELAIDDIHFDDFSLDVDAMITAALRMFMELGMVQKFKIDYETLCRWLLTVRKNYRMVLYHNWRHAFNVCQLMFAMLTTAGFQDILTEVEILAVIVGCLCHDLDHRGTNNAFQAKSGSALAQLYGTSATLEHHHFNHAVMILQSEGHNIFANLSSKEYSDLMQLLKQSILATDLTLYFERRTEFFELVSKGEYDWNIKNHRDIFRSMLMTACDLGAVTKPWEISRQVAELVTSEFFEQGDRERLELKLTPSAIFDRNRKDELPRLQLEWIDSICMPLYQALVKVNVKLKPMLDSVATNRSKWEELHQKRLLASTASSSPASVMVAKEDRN
Chain of PDE10A (Q9Y233 whole entry): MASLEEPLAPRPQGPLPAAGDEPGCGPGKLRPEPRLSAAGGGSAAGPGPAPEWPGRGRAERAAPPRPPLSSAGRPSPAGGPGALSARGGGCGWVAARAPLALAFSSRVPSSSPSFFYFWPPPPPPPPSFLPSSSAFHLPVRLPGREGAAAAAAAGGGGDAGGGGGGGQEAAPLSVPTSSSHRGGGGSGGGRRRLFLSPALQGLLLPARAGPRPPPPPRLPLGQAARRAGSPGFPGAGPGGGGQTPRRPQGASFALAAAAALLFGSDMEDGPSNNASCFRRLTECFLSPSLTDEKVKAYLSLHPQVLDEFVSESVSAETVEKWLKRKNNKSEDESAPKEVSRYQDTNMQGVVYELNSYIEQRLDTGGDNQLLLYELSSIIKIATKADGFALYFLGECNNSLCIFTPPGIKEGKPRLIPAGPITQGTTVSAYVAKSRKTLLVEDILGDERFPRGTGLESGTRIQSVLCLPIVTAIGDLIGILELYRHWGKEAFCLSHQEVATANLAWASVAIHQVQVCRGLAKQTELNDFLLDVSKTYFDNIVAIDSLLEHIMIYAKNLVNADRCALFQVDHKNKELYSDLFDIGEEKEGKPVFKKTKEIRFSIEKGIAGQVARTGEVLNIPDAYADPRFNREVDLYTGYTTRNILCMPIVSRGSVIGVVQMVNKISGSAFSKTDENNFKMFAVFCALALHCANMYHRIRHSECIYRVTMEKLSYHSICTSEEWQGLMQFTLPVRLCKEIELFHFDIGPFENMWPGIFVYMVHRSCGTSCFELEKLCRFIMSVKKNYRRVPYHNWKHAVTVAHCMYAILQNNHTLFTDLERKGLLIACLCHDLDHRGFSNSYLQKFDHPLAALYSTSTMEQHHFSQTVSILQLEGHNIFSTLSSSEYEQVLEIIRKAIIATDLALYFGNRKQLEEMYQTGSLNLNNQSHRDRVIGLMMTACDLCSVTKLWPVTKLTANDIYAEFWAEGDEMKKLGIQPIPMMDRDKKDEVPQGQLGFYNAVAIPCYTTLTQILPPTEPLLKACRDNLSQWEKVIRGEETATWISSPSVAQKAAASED

| Structure (SMILES) | inhibition at 10 µM (PDE5A1 [1]) [%] | other results |
| --- | --- | --- |
| COc1cccc2c1C(=O)c1c(O)ccc(O)c1C2=O [AG-650/41069360] | > 50 |  |
| COc1ccc(-c2cc3[nH]nc(N)c3c(=O)[nH]2)cc1 [AR-270/43409613] | > 50 |  |
| CCCc1nn(C)c2c(=O)[nH]c(-c3cc(S(=O)(=O)N4CCN(C)CC4)ccc3OCC)nc12 [Sildenafil] |  | % inhibition at 10 nM (PDE5A1 [2]): > 50 |
| CC1(C2CCc3c(O)c4c(c(O)c3C2)C(=O)c2ccccc2C4=O)OCCO1 (stereo not drawn) [AE-508/36401018] | > 50 |  |
| COc1cccc2c1C(=O)/C(=C/c1ccc(N(C)C)cc1)C2 [AT-051/43410123] | > 50 |  |
| COc1cc([N+](=O)[O-])cc2c1C(=O)Nc1ccccc1O2 [AG-205/40649212] | > 50 |  |
| Cc1sc(N)c2c(=O)oc3c4ccccc4ccc3c12 [AI-898/12177002] |  | % inhibition at 10 μM (PDE10A): 79; % inhibition at 10 μM (PDE11A): 63; IC50 (PDE5A1 [3]): 1600 nM |
